Measurements published in ChEMBL document CHEMBL1833915, “Discovery of potent, orally bioavailable phthalazinone bradykinin B1 receptor antagonists” (J Med Chem, 2011).
Values belong to the compound of their own block, whether it stands above or below them. Calls of active or inactive are those of the source. The calls are words filed in the database; no cut-off is given here.

How the values were obtained:
[1] = target: Sodium channel protein type 5 subunit alpha (Homo sapiens, UniProt Q14524); assay: Activity at Nav1.5 ion channel at 1 uM
Chain of Sodium channel protein type 5 subunit alpha (Q14524 whole entry): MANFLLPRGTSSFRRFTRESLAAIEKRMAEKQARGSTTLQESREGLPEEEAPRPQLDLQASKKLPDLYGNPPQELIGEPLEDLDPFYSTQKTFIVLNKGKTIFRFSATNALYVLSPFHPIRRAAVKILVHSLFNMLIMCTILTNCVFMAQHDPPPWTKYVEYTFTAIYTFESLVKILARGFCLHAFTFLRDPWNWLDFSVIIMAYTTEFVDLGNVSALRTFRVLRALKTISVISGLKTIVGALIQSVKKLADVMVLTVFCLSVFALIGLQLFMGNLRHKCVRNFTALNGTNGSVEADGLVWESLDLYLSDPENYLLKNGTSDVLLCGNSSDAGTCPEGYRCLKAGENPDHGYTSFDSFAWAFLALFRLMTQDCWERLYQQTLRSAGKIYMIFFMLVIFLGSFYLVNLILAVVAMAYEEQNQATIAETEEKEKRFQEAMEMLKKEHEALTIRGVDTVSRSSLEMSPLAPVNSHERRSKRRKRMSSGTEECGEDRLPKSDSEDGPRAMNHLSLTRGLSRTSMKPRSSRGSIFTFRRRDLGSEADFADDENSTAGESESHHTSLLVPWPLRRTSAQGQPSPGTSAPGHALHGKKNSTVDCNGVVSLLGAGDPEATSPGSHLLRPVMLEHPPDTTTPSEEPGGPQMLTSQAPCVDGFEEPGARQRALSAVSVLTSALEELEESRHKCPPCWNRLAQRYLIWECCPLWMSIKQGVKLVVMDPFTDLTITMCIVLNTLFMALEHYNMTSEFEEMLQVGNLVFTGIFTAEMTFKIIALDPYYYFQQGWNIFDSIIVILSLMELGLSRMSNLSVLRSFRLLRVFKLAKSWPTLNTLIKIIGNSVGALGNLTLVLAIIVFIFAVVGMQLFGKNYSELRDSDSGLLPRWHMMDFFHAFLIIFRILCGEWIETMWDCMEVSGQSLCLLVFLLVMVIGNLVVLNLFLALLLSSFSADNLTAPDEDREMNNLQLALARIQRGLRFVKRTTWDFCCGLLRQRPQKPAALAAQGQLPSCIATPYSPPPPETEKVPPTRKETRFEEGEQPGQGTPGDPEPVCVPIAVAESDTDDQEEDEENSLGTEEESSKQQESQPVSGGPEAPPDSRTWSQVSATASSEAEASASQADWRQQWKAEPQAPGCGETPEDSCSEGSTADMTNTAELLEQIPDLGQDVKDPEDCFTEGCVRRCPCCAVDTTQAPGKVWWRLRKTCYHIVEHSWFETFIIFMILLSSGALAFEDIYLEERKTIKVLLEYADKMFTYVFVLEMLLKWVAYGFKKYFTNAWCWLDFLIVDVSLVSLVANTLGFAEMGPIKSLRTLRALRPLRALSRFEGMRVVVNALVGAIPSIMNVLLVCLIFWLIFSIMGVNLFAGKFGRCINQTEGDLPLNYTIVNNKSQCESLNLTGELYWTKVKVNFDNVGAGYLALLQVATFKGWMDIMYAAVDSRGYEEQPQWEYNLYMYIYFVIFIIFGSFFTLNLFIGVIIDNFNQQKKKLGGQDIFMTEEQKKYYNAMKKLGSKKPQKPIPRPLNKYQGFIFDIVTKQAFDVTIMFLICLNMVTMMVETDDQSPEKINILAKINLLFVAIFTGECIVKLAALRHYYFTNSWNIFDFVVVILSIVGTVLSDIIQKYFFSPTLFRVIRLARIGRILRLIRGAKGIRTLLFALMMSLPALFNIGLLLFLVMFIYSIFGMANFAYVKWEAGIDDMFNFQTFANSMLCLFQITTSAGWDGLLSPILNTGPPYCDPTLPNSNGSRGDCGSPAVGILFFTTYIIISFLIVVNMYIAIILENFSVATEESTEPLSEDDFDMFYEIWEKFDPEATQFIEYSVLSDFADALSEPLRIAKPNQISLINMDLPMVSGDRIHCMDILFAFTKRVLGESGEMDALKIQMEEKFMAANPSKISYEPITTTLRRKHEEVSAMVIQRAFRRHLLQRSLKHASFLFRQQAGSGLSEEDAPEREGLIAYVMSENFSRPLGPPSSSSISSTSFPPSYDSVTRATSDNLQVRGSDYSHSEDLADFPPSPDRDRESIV

[2] = target: Voltage-gated inwardly rectifying potassium channel KCNH2 (Homo sapiens, UniProt Q12809); assay: Inhibition of human hERG at 1 uM
Chain of Voltage-gated inwardly rectifying potassium channel KCNH2 (Q12809 whole entry): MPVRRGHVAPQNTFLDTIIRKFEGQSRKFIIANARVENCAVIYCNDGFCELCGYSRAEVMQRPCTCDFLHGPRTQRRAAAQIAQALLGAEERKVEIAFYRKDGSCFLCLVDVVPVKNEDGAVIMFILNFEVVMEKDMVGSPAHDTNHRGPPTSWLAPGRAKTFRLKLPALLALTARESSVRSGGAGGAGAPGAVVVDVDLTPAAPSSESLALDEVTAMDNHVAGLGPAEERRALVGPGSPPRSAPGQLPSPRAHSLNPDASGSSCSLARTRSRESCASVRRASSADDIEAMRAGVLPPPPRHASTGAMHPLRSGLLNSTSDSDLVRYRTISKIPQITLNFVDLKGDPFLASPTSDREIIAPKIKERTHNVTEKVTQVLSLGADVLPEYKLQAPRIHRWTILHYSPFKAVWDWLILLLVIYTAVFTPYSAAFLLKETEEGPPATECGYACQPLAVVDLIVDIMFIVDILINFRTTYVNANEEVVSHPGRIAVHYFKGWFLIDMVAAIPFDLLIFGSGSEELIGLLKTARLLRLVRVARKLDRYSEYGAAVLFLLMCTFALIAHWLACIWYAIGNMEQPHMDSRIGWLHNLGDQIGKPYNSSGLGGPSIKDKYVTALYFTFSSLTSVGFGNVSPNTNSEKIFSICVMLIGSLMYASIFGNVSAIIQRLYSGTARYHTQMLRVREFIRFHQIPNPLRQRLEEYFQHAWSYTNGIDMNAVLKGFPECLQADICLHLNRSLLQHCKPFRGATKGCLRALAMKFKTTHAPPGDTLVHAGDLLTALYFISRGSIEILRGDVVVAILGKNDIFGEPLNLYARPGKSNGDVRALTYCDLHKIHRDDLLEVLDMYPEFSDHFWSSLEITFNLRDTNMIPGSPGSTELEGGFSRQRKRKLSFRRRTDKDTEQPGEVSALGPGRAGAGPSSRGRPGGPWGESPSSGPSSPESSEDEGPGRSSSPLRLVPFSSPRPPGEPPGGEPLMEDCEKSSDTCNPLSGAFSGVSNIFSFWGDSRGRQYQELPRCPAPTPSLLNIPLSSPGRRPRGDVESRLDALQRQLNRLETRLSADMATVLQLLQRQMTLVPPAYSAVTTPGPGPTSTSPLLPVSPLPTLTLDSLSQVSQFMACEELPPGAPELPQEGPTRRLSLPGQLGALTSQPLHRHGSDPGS

[3] = target: Potassium voltage-gated channel subfamily A member 5 (Homo sapiens) (UniProt P22460); assay: Activity at Kv1.5 ion channel at 1 uM
Chain of Potassium voltage-gated channel subfamily A member 5 (Homo sapiens) (P22460 whole entry): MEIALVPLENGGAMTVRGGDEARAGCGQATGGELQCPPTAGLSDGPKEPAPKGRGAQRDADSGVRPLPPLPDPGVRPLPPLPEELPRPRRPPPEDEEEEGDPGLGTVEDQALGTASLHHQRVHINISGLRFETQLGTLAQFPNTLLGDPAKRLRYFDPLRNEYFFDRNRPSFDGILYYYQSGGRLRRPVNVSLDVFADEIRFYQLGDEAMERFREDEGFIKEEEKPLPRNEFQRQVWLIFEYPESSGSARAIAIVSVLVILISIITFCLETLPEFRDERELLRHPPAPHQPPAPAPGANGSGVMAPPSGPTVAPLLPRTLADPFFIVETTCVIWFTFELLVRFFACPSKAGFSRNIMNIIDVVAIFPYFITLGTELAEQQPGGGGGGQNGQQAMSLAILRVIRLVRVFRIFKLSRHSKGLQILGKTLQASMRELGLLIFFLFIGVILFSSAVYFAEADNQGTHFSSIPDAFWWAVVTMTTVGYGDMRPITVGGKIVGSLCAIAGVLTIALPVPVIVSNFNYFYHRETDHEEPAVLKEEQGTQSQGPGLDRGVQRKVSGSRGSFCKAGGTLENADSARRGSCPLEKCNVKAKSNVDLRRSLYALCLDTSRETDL

[4] = target: T1, B1 bradykinin receptor (Homo sapiens, UniProt P46663); assay: Antagonist activity at human B1 receptor; assay type: functional
T1 sequence (P46663 whole entry): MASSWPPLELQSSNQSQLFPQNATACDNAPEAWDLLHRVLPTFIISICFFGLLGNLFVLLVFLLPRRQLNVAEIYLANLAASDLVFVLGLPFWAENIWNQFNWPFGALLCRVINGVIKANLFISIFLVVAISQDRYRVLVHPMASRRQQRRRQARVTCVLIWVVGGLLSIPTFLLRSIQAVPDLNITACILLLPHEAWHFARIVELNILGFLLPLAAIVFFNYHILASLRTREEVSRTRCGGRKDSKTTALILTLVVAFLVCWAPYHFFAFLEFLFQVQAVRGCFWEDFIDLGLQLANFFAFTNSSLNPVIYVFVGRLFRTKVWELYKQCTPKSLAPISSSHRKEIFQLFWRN

[5] = target: T1, B1 bradykinin receptor; assay: Antagonist activity at human B1 receptor expressed in CHO cells by aequorin-based calcium flux assay; assay type: functional, cell-based
[6] = target: T2, B1 bradykinin receptor (Oryctolagus cuniculus, UniProt P48748); assay: Inhibition of rabbit B1 receptor by cellular calcium flux assay; assay type: functional
T2 sequence (P48748 whole entry): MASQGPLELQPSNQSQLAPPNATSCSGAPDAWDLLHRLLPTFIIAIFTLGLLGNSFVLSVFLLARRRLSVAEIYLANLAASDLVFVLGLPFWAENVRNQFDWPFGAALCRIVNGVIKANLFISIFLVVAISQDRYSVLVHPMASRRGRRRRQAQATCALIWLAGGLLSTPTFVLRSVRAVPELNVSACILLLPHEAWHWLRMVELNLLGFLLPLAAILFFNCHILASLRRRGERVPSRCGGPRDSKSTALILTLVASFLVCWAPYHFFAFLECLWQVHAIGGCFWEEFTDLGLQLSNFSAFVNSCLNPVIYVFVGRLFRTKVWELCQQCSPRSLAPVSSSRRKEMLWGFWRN

[7] = Oral bioavailability in Sprague-Dawley rat at 5 mg/kg; assay type: ADME, organism-based; conditions: in vivo
[8] = Volume of distribution at steady state in Sprague-Dawley rat at 2 mg/kg, iv; assay type: ADME, organism-based; parameters: dose 2 mg/kg, route intravenous; conditions: in vivo, read-out: Vdss
[9] = Half life in Sprague-Dawley rat at 2 mg/kg, iv; assay type: ADME, organism-based; parameters: dose 2 mg/kg, route intravenous; conditions: in vivo
[10] = Clearance in Sprague-Dawley rat at 2 mg/kg, iv; assay type: ADME, organism-based; parameters: dose 2 mg/kg, route intravenous; conditions: in vivo
[11] = Oral bioavailability in dog at 1 mg/kg; assay type: ADME, organism-based, Canis lupus familiaris; conditions: in vivo
[12] = Half life in dog at 1 mg/kg, iv; assay type: ADME, organism-based, Canis lupus familiaris; parameters: dose 1 mg/kg, route intravenous; conditions: in vivo
[13] = Volume of distribution at steady state in dog at 1 mg/kg, iv; assay type: ADME, organism-based, Canis lupus familiaris; parameters: dose 1 mg/kg, route intravenous; conditions: in vivo, read-out: Vdss
[14] = Clearance in dog at 1 mg/kg, iv; assay type: ADME, organism-based, Canis lupus familiaris; parameters: dose 1 mg/kg, route intravenous; conditions: in vivo
[15] = Fraction unbound in rabbit plasma; assay type: ADME, cell-free, Oryctolagus cuniculus
[16] = system: Oryctolagus cuniculus; assay: Antihypertensive activity in sc dosed rabbit assessed as reduction in DAK-induced hypotension
[17] = system: Oryctolagus cuniculus; assay: […] activity in LPS treated rabbit assessed as reversal of DAK-induced hypotension at 0.003 to 1 mg/kg, sc; assay type: functional, organism-based
[18] = system: Oryctolagus cuniculus; assay: […] activity in LPS treated rabbit assessed as reversal of DAK-induced hypotension at 0.03 to 3 mg/kg, sc; assay type: functional, organism-based
[19] = Oral bioavailability in Sprague-Dawley rat; assay type: ADME, organism-based; conditions: in vivo
[20] = Clearance in Sprague-Dawley rat; assay type: ADME, organism-based; conditions: in vivo
[21] = target: T1, B1 bradykinin receptor; assay: Antagonist activity at human B1 receptor by cell-based assay; assay type: functional

SMILES: O=C(N[C@@H]1CCCc2cc(CN3CCCCC3)ccc21)c1ccc(-n2cnc3ccccc3c2=O)cc1
Ki [4]: 614 nM

SMILES: Cc1nn(-c2ccc(C(=O)N[C@@H]3CCCc4cc(CN5CCCCC5)ccc43)cc2)c(=O)c2c(F)ccc(F)c12
Ki [4]: 3.5 nM

SMILES: Cc1nn(-c2ccc(C(=O)N[C@@H]3CCCc4cc(CN5CCCCC5)ccc43)cn2)c(=O)c2c(F)ccc(F)c12
Ki [4]: 0.6 nM
IC50 [5]: 0.3 nM
IC50 [6]: 2.2 nM

SMILES: Cc1nn(-c2ccc(C(=O)N[C@@H]3CCCc4cc(CN5CCCCC5)ccc43)cc2)c(=O)c2c(Cl)cccc12
bioavailability [11]: 60%
Ki [4]: 0.9 nM
IC50 [5]: 1 nM
half-life [12]: 8.9 h
IC50 [6]: 21.4 nM
Vd [13]: 10.6 L/kg
bioavailability [7]: 90%
Vd [8]: 7.85 L/kg
half-life [9]: 10.4 h
clearance [14]: 19 mL/min/kg
clearance [10]: 11.2 mL/min/kg

SMILES: O=C(N[C@@H]1CCCc2cc(CN3CCCCC3)ccc21)c1ccc(-n2nc(-c3ccccc3)c3ccccc3c2=O)cc1
Ki [4]: 418 nM

SMILES: Cc1nn(-c2ccc(C(=O)N[C@@H]3CCCc4cc(CN5CCCCC5)ccc43)cn2)c(=O)c2c(F)cccc12
fraction unbound [15]: 0.24
IC50 [16]: 2.5 nM
Activity [1]: Not Active
Ki [4]: 0.6 nM
Activity [2]: Not Active
IC50 [5]: 0.09 nM
IC50 [6]: 0.6 nM
Activity [17]: Active
bioavailability [7]: 61%
Activity [3]: inactive
Vd [8]: 6.45 L/kg
half-life [9]: 3.3 h
Activity [18]: Active
clearance [10]: 23.5 mL/min/kg

SMILES: O=C(CCCCC(=O)c1ccccc1)N[C@@H]1CCCc2cc(CN3CCCCC3)ccc21
Ki [4]: 1680 nM
IC50 [21]: 1370 nM

Continued, in another order:

Activity [3]: inactive
SMILES: Cc1nn(-c2ccc(C(=O)N[C@@H]3CCCc4cc(CN5CCCCC5)ccc43)cn2)c(=O)c2c(Cl)cccc12
Activity [1]: Not Active
Activity [2]: Not Active

Ki [4]: 1.9 nM
SMILES: Cc1nn(-c2ccc(C(=O)N[C@@H]3CCCc4cc(CN5CCCCC5)ccc43)cc2)c(=O)c2c(F)cccc12

Ki [4]: > 10000 nM
SMILES: O=C(N[C@@H]1CCCc2cc(CN3CCCCC3)ccc21)c1cccc(-n2cnc3ccccc3c2=O)c1

Ki [4]: 6370 nM
SMILES: Cc1nn(-c2cccc(C(=O)N[C@@H]3CCCc4cc(CN5CCCCC5)ccc43)c2)c(=O)c2ccccc12

Ki [4]: 35 nM
bioavailability [7]: 51%
Vd [8]: 8.09 L/kg
half-life [9]: 6.1 h
clearance [10]: 15 mL/min/kg
SMILES: Cc1nn(-c2ccc(C(=O)N[C@@H]3CCCc4cc(CN5CCCCC5)ccc43)cc2)c(=O)c2ccccc12

Ki [4]: 64 nM
SMILES: O=C(N[C@@H]1CCCc2cc(CN3CCCCC3)ccc21)c1cccc(-c2coc3ccccc3c2=O)c1

bioavailability [19]: 6%
IC50 [6]: 4.1 nM
clearance [20]: 123 mL/min/kg
SMILES: Cc1ccc(S(=O)(=O)N2CCNC(=O)[C@H]2CC(=O)N[C@@H]2CCCc3cc(CN4CCCCC4)ccc32)cc1

Ki [4]: 296 nM
SMILES: O=C(Cc1ccc(C(=O)N[C@@H]2CCCc3cc(CN4CCCCC4)ccc32)cc1)c1ccccc1

Ki [4]: 29 nM
SMILES: CCc1nn(-c2ccc(C(=O)N[C@@H]3CCCc4cc(CN5CCCCC5)ccc43)cc2)c(=O)c2ccccc12
